{"source": "paper PMC3564010", "about": "“Exposure to Acetylcholinesterase Inhibitors Alters the Physiology and Motor Function of Honeybees” (Frontiers in Physiology, 2013)", "test_system": "T1, AChE (honeybee gut lysate)", "T1 construct": "gene AChE-1; total AChE activity", "assay": "Ellman assay, […] nm, Hill fit", "assay_type": "biochemical, Apis mellifera mellifera", "details": "gut homogenate; […] min incubation; […] acetylthiocholine iodide, […] DTNB; PBS", "data": [{"smiles": "COc1cc2c(cc1OC)C(=O)C(CC1CCN(Cc3ccccc3)CC1)C2", "note": "(stereo not shown) [Donepezil]", "values": [{"measurement": "IC50", "result": "115 ± 5.86", "unit": "nM"}]}]}
